The subject of series [1] is hCAR. As to the kind of experiment: HepG2 cell reporter assay, hCAR activation. It is filed as cell-based, human. Conditions: 1 μM; normalized against CITCO. (In general: Reporter assays use an easily measured gene product as a stand-in for the process of interest.)
A further series deals with T1, hPXR (Homo sapiens, UniProt O75469).
T1 sequence (O75469 1-434): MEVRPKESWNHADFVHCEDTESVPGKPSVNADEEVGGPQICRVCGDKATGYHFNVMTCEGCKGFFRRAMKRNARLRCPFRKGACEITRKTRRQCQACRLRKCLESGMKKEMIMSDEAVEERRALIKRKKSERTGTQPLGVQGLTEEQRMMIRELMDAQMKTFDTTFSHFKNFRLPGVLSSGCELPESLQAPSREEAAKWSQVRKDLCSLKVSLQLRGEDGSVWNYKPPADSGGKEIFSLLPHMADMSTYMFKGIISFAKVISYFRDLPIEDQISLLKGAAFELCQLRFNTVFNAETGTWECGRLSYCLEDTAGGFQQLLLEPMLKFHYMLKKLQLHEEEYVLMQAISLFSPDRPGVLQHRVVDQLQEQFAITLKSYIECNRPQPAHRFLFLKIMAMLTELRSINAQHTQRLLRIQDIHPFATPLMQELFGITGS
As to the kind of experiment: HepG2 cell reporter assay, hPXR activation. It is filed as cell-based. Conditions: 1 μM; for hPXR activation in HepG2 cell reporter assay (in words): normalized against rifampicin; for selectivity for hCAR over hPXR (in words): HepG2 cell reporter assays.

In series [2] the target is T2, hCAR (Homo sapiens, UniProt Q14994).
T2 sequence (Q14994 1-348 isoform Q14994-2): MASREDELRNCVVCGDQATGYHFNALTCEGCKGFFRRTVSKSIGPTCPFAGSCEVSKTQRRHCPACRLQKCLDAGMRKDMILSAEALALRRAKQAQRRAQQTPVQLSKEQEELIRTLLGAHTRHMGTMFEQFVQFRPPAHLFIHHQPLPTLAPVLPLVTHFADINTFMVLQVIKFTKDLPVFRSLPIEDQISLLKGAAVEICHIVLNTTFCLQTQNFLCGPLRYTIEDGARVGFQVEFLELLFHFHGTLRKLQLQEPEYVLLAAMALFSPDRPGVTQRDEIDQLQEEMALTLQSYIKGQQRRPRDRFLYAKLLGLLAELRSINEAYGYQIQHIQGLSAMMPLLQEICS
T2 sequence (P19793 1-462 partner): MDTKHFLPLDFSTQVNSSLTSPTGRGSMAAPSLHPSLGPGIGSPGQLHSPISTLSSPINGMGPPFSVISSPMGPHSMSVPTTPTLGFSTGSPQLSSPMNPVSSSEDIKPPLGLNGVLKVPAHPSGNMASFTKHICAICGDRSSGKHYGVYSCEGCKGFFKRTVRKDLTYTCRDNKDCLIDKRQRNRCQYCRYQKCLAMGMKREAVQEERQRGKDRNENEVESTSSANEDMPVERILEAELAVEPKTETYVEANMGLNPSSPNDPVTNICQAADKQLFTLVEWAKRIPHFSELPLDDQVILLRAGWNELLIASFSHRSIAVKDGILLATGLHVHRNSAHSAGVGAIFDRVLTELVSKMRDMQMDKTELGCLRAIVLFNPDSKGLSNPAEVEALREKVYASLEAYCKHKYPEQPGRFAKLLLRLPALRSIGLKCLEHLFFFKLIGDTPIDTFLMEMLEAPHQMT
As to the kind of experiment: hCAR agonist luciferase reporter gene assay. The format is cell-based. To be noted: for fold decrease in potency (EC50) compared to compound 2: hCAR EC50 vs parent compound 2; for hCAR agonist activity (in words): hCAR luciferase reporter.

For series [3], the system named is hCAR. As to the kind of experiment: hCAR nuclear translocation assay in HPH. To be noted: Ad-EYFP-hCAR-infected HPH, 1 μM, 8 h. It is filed as cell-based, human.
For series [4] the following is noted: cited from earlier work.

Turning to `c1ccc2c(c1)CC(NCc1c(-c3ccc4ccccc4c3)nc3sccn13)C2` [Compound 31, N-((6-(Naphthalen-2-yl)imidazo[2,1-b]thiazol-5-yl)methyl)-2,3-dihydro-1H-inden-2-amine], the “hCAR activation in HepG2 cell reporter assay (in words)” value (from here on “hCAR activation”) in the series on hCAR [1] is listed as “enhanced hCAR activation over CITCO”. Also, the “hPXR activation in HepG2 cell reporter assay (in words)” value (“hPXR activation” for short) on hPXR is recorded as “slightly increased”.
Regarding `Clc1ccc(-c2nc3sccn3c2CNCc2ccccc2)cc1` [Compound 15, N-Benzyl-1-(6-(4-chlorophenyl)imidazo[2,1-b]thiazol-5-yl)methanamine], the “fold decrease in potency compared to compound 14” value on hCAR [2] (hCAR EC50, analog one CH2 shorter than 14) was “over 11 fold”.
For the compound `Clc1cccc(-c2nc3sccn3c2CNCCc2ccc(Cl)c(Cl)c2)c1` [Compound 20, N-((6-(3-Chlorophenyl)imidazo[2,1-b]thiazol-5-yl)methyl)-2-(3,4-dichlorophenyl)ethan-1-amine], at hCAR [2], the “fold decrease in potency (EC50) compared to compound 2” value (“fold decrease in potency (EC50)” below) stood at 2.3 fold.
Take `Fc1ccc(-c2nc3sccn3c2CNCCc2ccc(Cl)c(Cl)c2)cc1` [Compound 23, 2-(3,4-Dichlorophenyl)-N-((6-(4-fluorophenyl)imidazo[2,1-b]thiazol-5-yl)methyl)ethan-1-amine]: the “hCAR activation” value in the series with hCAR [1] was “slightly decreased activation potency”.
With `CCc1nc2sccn2c1CNCCc1ccc(Cl)c(Cl)c1` [Compound 19, 2-(3,4-Dichlorophenyl)-N-((6-ethylimidazo[2,1-b]thiazol-5-yl)methyl)ethan-1-amine], the “hCAR agonist activity (in words)” value at hCAR [2] is given as “dramatic drop in hCAR activity”.
Still for that read-out and setting: the value for `N#Cc1ccc(-c2nc3sccn3c2CNCCc2ccc(Cl)c(Cl)c2)cc1` [Compound 27, 4-(5-(((3,4-Dichlorophenethyl)amino)methyl)imidazo[2,1-b]thiazol-6-yl)benzonitrile] was “significantly less active”.
As to `Clc1ccc(-c2nc3sccn3c2CNCCc2ccccc2)cc1` [Compound 14, N-((6-(4-Chlorophenyl)imidazo[2,1-b]thiazol-5-yl)methyl)-2-phenylethan-1-amine], the “hCAR agonist activity (in words)” value at hCAR [2] is “potent hCAR agonist”. Moreover, the “selectivity for hCAR over hPXR (in words)” value (“selectivity for hCAR” for short) on hPXR is “maintaining selectivity for hCAR against hPXR”.
As for `Clc1ccc(-c2nc3occn3c2CNCCc2ccc(Cl)c(Cl)c2)cc1` [Compound 7, N-((6-(4-Chlorophenyl)imidazo[2,1-b]oxazol-5-yl)methyl)-2-(3,4-dichlorophenyl)ethan-1-amine], the “fold decrease in potency (EC50)” value at hCAR [2] was found to be 3.2 fold. Moreover, in the series with hCAR [1], the “hCAR activation” value is “slight decrease in hCAR activation potency”. In addition, the “selectivity for hCAR” value on hPXR is “good specificity for hCAR”.
For the compound `CC(C)(C)c1ccc(-c2nc3sccn3c2CNCCc2ccc(Cl)c(Cl)c2)cc1` [Compound 28, N-((6-(4-(tert-Butyl)phenyl)imidazo[2,1-b]thiazol-5-yl)methyl)-2-(3,4-dichlorophenyl)ethan-1-amine], on hCAR [2], the “hCAR agonist activity (in words)” value was “significantly less active”.
With `Clc1ccc(-c2nc3sccn3c2/C=N/OCc2ccc(Cl)c(Cl)c2)cc1` [CITCO, 6-(4-chlorophenyl)imidazo-[2,1-b]thiazole-5-carbaldehyde-O-(3,4-dichlorobenzyl)oxime, reference compound], the “hCAR translocation from cytoplasm to nucleus (in words)” value in the series with hCAR [3] is “efficiently translocated into the nucleus”. Also, the “stability of results in hCAR luciferase gene reporter assay (in words)” value in series [4] is given as “unstable results”.
With `Clc1ccc(CCNCc2c(-c3ccccc3)nc3sccn23)cc1Cl` [Compound 24, 2-(3,4-Dichlorophenyl)-N-((6-phenylimidazo[2,1-b]thiazol-5-yl)methyl)ethan-1-amine], the “hCAR activation” value in the series with hCAR [1] was “slightly decreased activation potency”.
As to `c1ccc(CCNCc2c(-c3ccc4ccccc4c3)nc3sccn23)cc1` [Compound 30, N-((6-(Naphthalen-2-yl)imidazo[2,1-b]thiazol-5-yl)methyl)-2-phenylethan-1-amine], at hPXR, the “hPXR activation” value was “significantly activated hPXR”.
`Clc1ccc(-c2nc3sccn3c2CNCCc2cccc(Cl)c2)cc1` [Compound 10, 2-(3-Chlorophenyl)-N-((6-(4-chlorophenyl)imidazo[2,1-b]thiazol-5-yl)methyl)ethan-1-amine]: the “fold decrease in potency (EC50)” value at hCAR [2] is 7 fold.
Regarding `Clc1ccc(-c2nc3sccn3c2CNc2ccc3ccccc3c2)cc1` [Compound 18, N-((6-(4-Chlorophenyl)imidazo[2,1-b]thiazol-5-yl)methyl)naphthalen-2-amine], the “hCAR agonist activity (in words)” value on hCAR [2] is “inactive”.
Regarding `Clc1ccc(-c2nc3ncccn3c2CNCCc2ccc(Cl)c(Cl)c2)cc1` [Compound 8, N-((2-(4-Chlorophenyl)imidazo[1,2-a]pyrimidin-3-yl)methyl)-2-(3,4-dichlorophenyl)ethan-1-amine], at hCAR [2], the “fold decrease in potency (EC50)” value came to 2 fold. In addition, the “hCAR activation” value in the series with hCAR [1] was “less potent compared to CITCO”.
As for `FC(F)(F)c1ccc(-c2nc3sccn3c2CNCCc2ccc(Cl)c(Cl)c2)cc1` [Compound 22, 2-(3,4-Dichlorophenyl)-N-((6-(4-(trifluoromethyl)phenyl)imidazo[2,1-b]thiazol-5-yl)methyl)ethan-1-amine], on hCAR [2], the “hCAR agonist activity (in words)” value is given as “much weaker agonist”.
For `Clc1ccc(CCNCc2c(-c3ccc(Cl)cc3)nc3sccn23)cc1` [Compound 9, 2-(4-Chlorophenyl)-N-((6-(4-chlorophenyl)imidazo[2,1-b]thiazol-5-yl)methyl)ethan-1-amine], at hCAR [2], the “fold decrease in potency (EC50)” value is reported as 1.6 fold. The “selectivity for hCAR” value at hPXR is listed as “maintaining selectivity for hCAR against hPXR”.
For `Clc1ccc(-c2nc3sccn3c2CNC2Cc3ccccc3C2)cc1` [Compound 17, N-((6-(4-Chlorophenyl)imidazo[2,1-b]thiazol-5-yl)methyl)-2,3-dihydro-1H-inden-2-amine], at hPXR, the “selectivity for hCAR” value is “maintaining selectivity for hCAR against hPXR”.
As to `Clc1ccc(-c2nc3sccn3c2COCCc2ccc(Cl)c(Cl)c2)cc1` [Compound 5, 6-(4-Chlorophenyl)-5-((3,4-dichlorophenethoxy)methyl)imidazo[2,1-b]thiazole], the “hPXR activation” value at hPXR was “significantly activated hPXR”.
`Clc1ccc(-c2nc3sccn3c2CNCCc2ccc(Cl)c(Cl)c2)cc1` [Compound 2, N-((6-(4-Chlorophenyl)imidazo[2,1-b]thiazol-5-yl)methyl)-2-(3,4-dichlorophenyl)ethan-1-amine]: the “fold increase in potency compared to CITCO” value on hCAR [2] (hCAR EC50 vs CITCO) is on record as 1.4 fold.
As for `Clc1ccc(CCNCc2c(-c3ccc4ccccc4c3)nc3sccn23)cc1Cl` [Compound 29, 2-(3,4-Dichlorophenyl)-N-((6-(naphthalen-2-yl)imidazo[2,1-b]thiazol-5-yl)methyl)ethan-1-amine], the “fold decrease in potency (EC50)” value at hCAR [2] amounted to 3 fold. Moreover, the “hCAR activation” value with hCAR [1] is “slight increase in activation of hCAR”. In addition, the “selectivity for hCAR” value at hPXR was “retained selectivity for hCAR over hPXR”.
In the case of `Cc1cn2c(CNCCc3ccc(Cl)c(Cl)c3)c(-c3ccc(Cl)cc3)nc2s1` [Compound 6, N-((6-(4-Chlorophenyl)-2-methylimidazo[2,1-b]thiazol-5-yl)methyl)-2-(3,4-dichlorophenyl)ethan-1-amine], the “fold decrease in potency (EC50)” value at hCAR [2] was found to be 5.5 fold.

These data come from paper PMC6718324 (European journal of medicinal chemistry, 2019).
